# Data taken from US9000025B2, “Autotaxin inhibitors and uses thereof” (Amira Pharmaceuticals, Inc., priority 2010, dated 2015).
# Target: T1, autotaxin (ATX) (Homo sapiens, UniProt Q13822)
# T1 construct: conditioned medium from the human melanoma cell line, MDA-MB-4355, which endogenously expresses autotaxin; host or cells: MDA-MB-435S human melanoma cells; serum-free conditioned medium, concentrated 20-fold
# Test: Native Autotaxin Choline Release Assay
# Type: biochemical
# Conditions: autotaxin in conditioned medium from human melanoma cell line; choline released from LPC; read-out: MDA-MB-435S Assay IC50
# Procedure: ATX activity is determined by measuring the amount of choline realeased from the substrate, lyosphophatidylcholine (LPC). […] After reaching confluency, the cells are washed twice with phosphate-buffered saline (PBS) then cultured for 48 hours in phenol-red free, serum-free DMEM containing sodium pyruvate. […] 100 μl of a color mix which contains 4.5 mM 4-aminoantipyrine, 2.7 mM N-ethyl-N-(2-hydroxy-3-sulfopropyl)-m-toluidine, 21 units/ml horseradish peroxidase and 3 units/ml choline oxidase in 50 mM Tris, pH 8, 4.5 mM MgCl2 is added and the incubation continued at 37° C. for 10 minutes before reading the absorbance at 555 nm. The concentration of released choline in the sample is determined from a choline standard curve and is equal to the concentration of LPA produced.
row,IC50 [nM],SMILES
1,< 300,"CCCn1cc(-n2c(C)c(Sc3cccc(CC(=O)O)c3)c3ccc(Cl)cc32)cn1 [Compound 1-70, {3-[6-Chloro-1-(1-propyl-1H-pyrazol-4-yl)-2-methyl-1H-indol-3-ylsulfanyl]-phenyl}-acetic acid]"
2,< 300,"Cc1c(Sc2cccc(C(=O)O)c2)c2ccc(Cl)cc2n1-c1cnn(-c2ccc(F)cc2)c1 [Compound 1-71, 3-{6-Chloro-1-[1-(4-fluoro-phenyl)-1H-pyrazol-4-yl]-2-methyl-1H-indol-3-ylsulfanyl}-benzoic acid]"
3,< 300,"CCCCn1cc(-n2c(C)c(Sc3cccc(C(=O)O)c3)c3ccc(Cl)cc32)cn1 [Compound 1-72, 3-[1-(1-Butyl-1H-pyrazol-4-yl)-6-chloro-2-methyl-1H-indol-3-ylsulfanyl]-benzoic acid]"
4,< 300,"CCc1cncc(-n2c(C)c(Sc3cccc(C(=O)O)c3F)c3ccc(Cl)cc32)c1 [Compound 1-73, 3-[6-Chloro-1-(5-ethyl-pyridin-3-yl)-2-methyl-1H-indol-3-ylsulfanyl]-2-fluoro-benzoic acid]"
5,< 300,"CCn1cc(-n2c(C)c(Sc3cccc(C4(C(=O)O)CC4)c3)c3ccc(Cl)cc32)cn1 [Compound 1-74, 1-{3-[6-Chloro-1-(1-ethyl-1H-pyrazol-4-yl)-2-methyl-1H-indol-3-ylsulfanyl]-phenyl}-cyclopropanecarboxylic acid]"
6,> 1000,"CCn1cc(-n2c(C)c(Sc3cccc(C(=O)O)c3)c3ccc(S(C)(=O)=O)cc32)cn1 [Compound 1-75, 3-[1-(1-Ethyl-1H-pyrazol-4-yl)-6-methanesulfonyl-2-methyl-1H-indol-3-ylsulfanyl]-benzoic acid]"
7,< 300,"CCn1cc(-n2c(C)c(Sc3ccc(F)c(C(=O)O)c3)c3ccc(Cl)cc32)cn1 [Compound 1-76, 5-[6-chloro-1-(1-ethyl-1H-pyrazol-4-yl)-2-methyl-1H-indol-3-ylsulfanyl]-2-fluoro-benzoic acid]"
8,< 300,"CCn1cc(-n2c(C)c(Sc3cc(F)cc(C(=O)O)c3)c3ccc(Cl)cc32)cn1 [Compound 1-129, 3-[6-Chloro-1-(1-ethyl-1H-pyrazol-4-yl)-2-methyl-1H-indol-3-ylsulfanyl]-5-fluoro-benzoic acid]"
9,< 300,"Cc1ccc(-n2cc(-n3c(C)c(Sc4cccc(C(=O)O)c4)c4ccc(Cl)cc43)cn2)cc1 [Compound 1-130, 3-[6-Chloro-2-methyl-1-(1-p-tolyl-1H-pyrazol-4-yl)-1H-indol-3-ylsulfanyl]-benzoic acid]"
10,< 300,"CCCn1cc(-n2c(C)c(Sc3cccc(C(=O)O)c3F)c3ccc(Cl)cc32)cn1 [Compound 1-131, 3-[6-Chloro-2-methyl-1-(1-propyl-1H-pyrazol-4-yl)-1H-indol-3-ylsulfanyl]-2-fluoro-benzoic acid]"
11,< 300,"CCn1cc(-n2c(C)c(Sc3ccc(C)c(C(=O)O)c3)c3ccc(Cl)cc32)cn1 [Compound 1-132, 5-[6-Chloro-1-(1-ethyl-1H-pyrazol-4-yl)-2-methyl-1H-indol-3-ylsulfanyl]-2-methyl-benzoic acid]"
12,> 1000,"Cc1[nH]c2cc(Cl)ccc2c1Sc1cccc(B(O)O)c1 [Compound 2-1, 3-(6-Chloro-2-methyl-1H-indol-3-ylsulfanyl)-phenylboronic acid]"
13,> 1000,"COC(=O)c1cccc(Oc2c(C)n(Cc3ccccc3)c3cc(Cl)ccc23)c1 [Compound 2-3, 3-(1-Benzyl-6-chloro-2-methyl-1H-indol-3-yloxy)-benzoic acid methyl ester]"
14,> 1000,"Cc1c(Oc2cccc(CO)c2)c2ccc(Cl)cc2n1Cc1ccccc1 [Compound 2-4, [3-(1-Benzyl-6-chloro-2-methyl-1H-indol-3-yloxy)-phenyl]-methanol]"
15,> 1000,"Cc1c(Oc2cccc(CC#N)c2)c2ccc(Cl)cc2n1Cc1ccccc1 [Compound 2-5, [3-(1-Benzyl-6-chloro-2-methyl-1H-indol-3-yloxy)-phenyl]-acetonitrile]"
16,> 1000,"Cc1c(Oc2cccc(Cc3nn[nH]n3)c2)c2ccc(Cl)cc2n1Cc1ccccc1 [Compound 2-6, 1-Benzyl-6-chloro-2-methyl-3-[3-(2H-tetrazol-5-ylmethyl)-phenoxy]-1H-indole]"
17,> 1000,"Cc1c(Sc2cccc(/C=C/C(=O)O)c2)c2ccc(Cl)cc2n1Cc1ccccc1 [Compound 2-7, (E)-3-[3-(1-Benzyl-6-chloro-2-methyl-1H-indol-3-ylsulfanyl)-phenyl]-acrylic acid]"
18,> 1000,"Cc1c(Sc2cccc(Cc3nn[nH]n3)c2)c2ccc(Cl)cc2n1Cc1ccccc1 [Compound 2-8, 1-Benzyl-6-chloro-2-methyl-3-[3-(2H-tetrazol-5-ylmethyl)-phenylsulfanyl]-1H-indole]"
19,> 1000,"Cc1c(Sc2cccc(-c3nn[nH]n3)c2)c2ccc(Cl)cc2n1Cc1ccccc1 [Compound 2-9, 1-Benzyl-6-chloro-2-methyl-3-[3-(2H-tetrazol-5-yl)-phenylsulfanyl]-1H-indole]"
20,> 1000,"Cc1c(Sc2cccc(C(=O)NCC[N+](C)(C)C)c2)c2ccc(Br)cc2n1Cc1ccccc1 [Compound 2-10, {2-[3-(1-Benzyl-6-bromo-2-methyl-1H-indol-3-ylsulfanyl)-benzoylamino]-ethyl}-trimethyl-ammonium]"

row,IC50 [nM],SMILES
1,> 1000,"Cc1c(Sc2cccc(C(=O)NCCN(C)C)c2)c2ccc(Br)cc2n1Cc1ccccc1 [Compound 2-11, 3-(1-Benzyl-6-bromo-2-methyl-1H-indol-3-ylsulfanyl)-N-(2-dimethylamino-ethyl)-benzamide]"
2,> 1000,"Cc1c(Sc2cccc(B(O)O)c2)c2ccc(Cl)cc2n1-c1cccnc1 [Compound 2-12, 3-(6-Chloro-2-methyl-1-pyridin-3-yl-1H-indol-3-ylsulfanyl)-phenylboronic acid]"
3,> 1000,"Cc1[nH]c2cc(Cl)ccc2c1Sc1ccccc1CC(=O)O [Compound 3-1, [2-(6-Chloro-2-methyl-1H-indol-3-ylsulfanyl)-phenyl]-acetic acid]"
4,> 1000,"Cc1[nH]c2cc(Cl)ccc2c1Sc1ccc(CC(=O)O)cc1 [Compound 3-2, [4-(6-Chloro-2-methyl-1H-indol-3-ylsulfanyl)-phenyl]-acetic acid]"
5,> 1000,"Cc1[nH]c2ccc(Cl)cc2c1Sc1cccc(CC(=O)O)c1 [Compound 3-3, [3-(5-Chloro-2-methyl-1H-indol-3-ylsulfanyl)-phenyl]-acetic acid]"
6,> 1000,"Cc1[nH]c2c(Cl)cccc2c1Sc1cccc(CC(=O)O)c1 [Compound 3-4, [3-(7-Chloro-2-methyl-1H-indol-3-ylsulfanyl)-phenyl]-acetic acid]"
7,> 1000,"Cc1[nH]c2cccc(F)c2c1Sc1cccc(CC(=O)O)c1 [Compound 3-5, [3-(4-Fluoro-2-methyl-1H-indol-3-ylsulfanyl)-phenyl]-acetic acid]"
8,> 1000,"COc1cccc2[nH]c(C)c(Sc3cccc(CC(=O)O)c3)c12 [Compound 3-6, [3-(4-Methoxy-2-methyl-1H-indol-3-ylsulfanyl)-phenyl]-acetic acid]"
9,> 1000,"O=C(O)c1cccc(Sc2c(C(F)(F)F)[nH]c3cc(Cl)ccc23)c1 [Compound 3-7, 3-(6-Chloro-2-trifluoromethyl-1H-indol-3-ylsulfanyl)-benzoic acid]"
10,> 1000,"Cc1[nH]c2cccc(Cl)c2c1Sc1cccc(B(O)O)c1 [Compound 3-9, 3-(4-Chloro-2-methyl-1H-indol-3-ylsulfanyl)-phenylboronic acid]"
11,> 1000,"Cc1c(Sc2ccccc2CC(=O)O)c2ccc(Cl)cc2n1C [Compound 3-10, [2-(6-Chloro-1,2-dimethyl-1H-indol-3-ylsulfanyl)-phenyl]-acetic acid]"
12,> 1000,"Cc1c(Sc2ccc(CC(=O)O)cc2)c2ccc(Cl)cc2n1C [Compound 3-11, [4-(6-Chloro-1,2-dimethyl-1H-indol-3-ylsulfanyl)-phenyl]-acetic acid]"
13,> 1000,"Cc1c(Sc2cccc(CC(=O)O)c2)c2cc(Cl)ccc2n1C [Compound 3-12, [3-(5-Chloro-1,2-dimethyl-1H-indol-3-ylsulfanyl)-phenyl]-acetic acid]"
14,> 1000,"O=C(O)c1cccc(Sc2c(C(F)(F)F)n(Cc3ccccc3)c3cc(Cl)ccc23)c1 [Compound 3-13, 3-(1-Benzyl-6-chloro-2-trifluoromethyl-1H-indol-3-ylsulfanyl)-benzoic acid]"
15,> 1000,"CCc1c(Sc2cccc(C(=O)O)c2)c2ccc(Cl)cc2n1Cc1ccccc1 [Compound 3-15, 3-(1-Benzyl-6-chloro-2-ethyl-1H-indol-3-ylsulfanyl)-benzoic acid]"
16,< 300,"CCn1cc(-n2c(C)c(Sc3cccc(C(=O)O)c3)c3ccc(Cl)c(F)c32)cn1 [Compound 3-16, 3-[6-Chloro-1-(1-ethyl-1H-pyrazol-4-yl)-7-fluoro-2-methyl-1H-indol-3-ylsulfanyl]-benzoic acid]"
17,300 to 1000,"O=C(O)c1cccc(Sc2cn(Cc3ccccc3)c3cc(Cl)ccc23)c1 [Compound 3-17, 3-(1-Benzyl-6-chloro-1H-indol-3-ylsulfanyl)-benzoic acid]"
18,300 to 1000,"O=C(O)c1cccc(Sc2cn(-c3cccnc3)c3cc(Cl)ccc23)c1 [Compound 3-19, 3-(6-Chloro-1-pyridin-3-yl-1H-indol-3-ylsulfanyl)-benzoic acid]"
19,< 300,"Cc1c(Sc2cccc(C(C)C(=O)O)c2)c2ccc(Cl)cc2n1-c1cccnc1 (stereo not drawn) [Compound 3-20, 2-[3-(6-Chloro-2-methyl-1-pyridin-3-yl-1H-indol-3-ylsulfanyl)-phenyl]-propionic acid]"
